Test results taken from patent US8859541B2, “6-alkynylpyridines” (Boehringer Ingelheim International GmbH, priority 2012, dated 2014).

target: T1, XIAP BIR3 (Homo sapiens, UniProt P98170); assay: XIAP BIR3 binding assay (DELFIA), displacement of SMAC peptide; conditions: GST-fusion BIR3 domain (aa 241 to 356) 10 nM, SMAC peptide 10 nM; activity of the (S)-isomers
T1 construct: covering amino acids 241 to 356; XIAP BIR3; made in house; host or cells: E. coli
Experimental: Biological Methods XIAP BIR3 and cIAP1 BIR3 Binding Assays (DELFIA)
Peptide […]-Lys(Biotin), representing the N-terminus of mature human SMAC (SMAC peptide), was used as interaction partner in the protein-peptide interaction assay.
BIR3 domains (10 nM) were incubated with SMAC peptide (10 nM) in Assay Buffer (50 mM Tris, 120 mM NaCl, 0.1% BSA, 1 mM DTT, 0.05% TritonX100) for one hour at room temperature in the presence of inhibitiory compounds. The assay mixture was transferred to a strepatvidin coated plate and incubated for one hour at room temperature to allow binding of the biotinylated peptide and associated BIR3 domains to the plate. After several washing steps Eu labeled anti-GST antibody (e.g. Perkin Elmer DELFIA Eu-N1-antiGST AD0250) was added to detect BIR3 domain-SMAC peptide interactions according to Perkin Elmer's instructions. […] Time resolved Europium fluoresecence was measured in a Wallac Victor using Standard assay settings.
DELFIA assay results were plotted against compound concentrations and Software GraphPad Prizm was used to calculate half maximal inhibitory concentrations (IC50 values).

T1 sequence (P98170 241-356): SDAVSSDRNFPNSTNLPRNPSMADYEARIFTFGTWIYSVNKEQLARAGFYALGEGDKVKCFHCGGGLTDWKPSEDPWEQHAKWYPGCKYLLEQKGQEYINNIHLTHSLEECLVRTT

Row | IC50 [nM] | SMILES
1 | 4240 | CC(N)C(=O)Nc1cc2ccccc2c(C#Cc2ccc(Cl)cc2)n1 (stereo not shown) [Example 207, 2-amino-N-[1-[2-(4-chlorophenyl)ethynyl]-isoquinolin-3-yl]propan-amide]
2 | 554 | CNC(C)C(=O)Nc1ccc(-c2cncc3ccccc23)c(C#Cc2ccc3occc3c2)n1 (stereo not shown) [Example 16, N-[6-[2-(1-benzofuran-5-yl)-ethynyl]-5-isoquinolin-4-ylpyridin-2-yl]-2-(methyl-amino)propanamide]
3 | 1770 | CNC(C)C(=O)Nc1ccc(-c2ccccc2Cl)c(C#Cc2ccccc2)n1 (stereo not shown) [Example 116, N-[5-(2-chlorophenyl)-6-(2-phenylethynyl)pyridin-2-yl]-2-(methylamino)propanamide]
4 | 4450 | CNC(C)C(=O)Nc1ccc(-c2c(OC)ccc3ccccc23)c(C#Cc2ccccc2)n1 (stereo not shown) [Example 163, N-[5-(2-methoxynaphthalen-1-yl)-6-(2-phenylethynyl)pyridin-2-yl]-2-(methylamino)propanamide]
5 | 3200 | CC(N)C(=O)Nc1cccc(C#Cc2ccco2)n1 (stereo not shown) [Example 241, 2-amino-N-[6-[2-(furan-2-yl)ethynyl]pyridin-2-yl]propanamide]
6 | 2160 | COc1cccc(C#Cc2cccc(NC(=O)C(C)N)n2)c1 (stereo not shown) [Example 220, 2-amino-N-[6-[2-(3-methoxyphenyl)ethynyl]pyridin-2-yl]propanamide]
7 | 772 | CNC(C)C(=O)Nc1ccc(-c2cnc(SC)nc2)c(C#Cc2ccc3ccccc3c2)n1 (stereo not shown) [Example 158, 2-(methylamino)-N-[5-(2-methylsulfanylpyrimidin-5-yl)-6-(2-naphthalen-2-ylethynyl)-pyridin-2-yl]propanamide]
8 | 388 | CNC(C)C(=O)Nc1ccc(-c2cccc3ncccc23)c(C#Cc2ccc(C)cc2)n1 (stereo not shown) [Example 143, 2-(methylamino)-N-[6-[2-(4-methylphenyl)ethynyl]-5-quinolin-5-ylpyridin-2-yl]propan-amide]
9 | 326 | CNC(C)C(=O)Nc1ccc(-c2ccc(C(=O)OC)nc2)c(C#Cc2cc(F)cc(F)c2)n1 (stereo not shown) [Example 151, methyl 5-[2-[2-(3,5-difluorophenyl)ethynyl]-6-[[2-(methylamino)propanoyl]amino]-pyridin-3-yl]pyridine-2-carboxylate]
10 | 155 | CNC(C)C(=O)Nc1ccc(-c2cccc3[nH]ncc23)c(C#Cc2ccccc2)n1 (stereo not shown) [Example 137, N-[5-(1H-indazol-4-yl)-6-(2-phenylethynyl)pyridin-2-yl]-2-(methylamino)propanamide]
11 | 474 | CNC(C)C(=O)Nc1ccc(-c2cnccc2C#N)c(C#Cc2cc(F)cc(F)c2)n1 (stereo not shown) [Example 160, N-[5-(4-cyanopyridin-3-yl)-6-[2-(3,5-difluorophenyl)ethynyl]-pyridin-2-yl]-2-(methylamino)-propanamide]
12 | 6540 | CC(N)C(=O)Nc1cccc(C#Cc2ccncc2)n1 (stereo not shown) [Example 218, 2-amino-N-[6-(2-pyridin-4-ylethynyl)pyridin-2-yl]propanamide]
13 | 287 | CNC(C)C(=O)Nc1ccc(-c2c(C)cncc2C)c(C#Cc2ccc3ncccc3c2)n1 (stereo not shown) [Example 1, N-[5-(3,5-dimethylpyridin-4-yl)-6-(2-quinolin-6-ylethynyl)pyridin-2-yl]-2-(methylamino)propanamide]
14 | 1030 | Cc1noc(C)c1-c1ccc(NC(=O)C(C)NC(C)C)nc1C#Cc1ccccc1 (stereo not shown) [Example 171, N-[5-(3,5-dimethyl-1,2-oxazol-4-yl)-6-(2-phenylethynyl)pyridin-2-yl]-2-(propan-2-ylamino)propanamide]
15 | 445 | CNC(C)C(=O)Nc1ccc(-c2cnc3ccc(C#N)cn23)c(C#Cc2ccc3cnccc3c2)n1 (stereo not shown) [Example 40, N-[5-(6-cyanoimidazo[1,2-a]-pyridin-3-yl)-6-(2-isoquinolin-6-ylethynyl)pyridin-2-yl]-2-(methylamino)propanamide]
16 | 1210 | CNC(C)C(=O)Nc1ccc(-c2cncnc2)c(C#Cc2ccc3c(c2)C(=O)CCO3)n1 (stereo not shown) [Example 11, 2-(methylamino)-N-[6-[2-(4-oxo-2,3-dihydrochromen-6-yl)ethynyl]-5-pyrimidin-5-ylpyridin-2-yl]propanamide]
17 | 7380 | CC(N)C(=O)Nc1cccc(C#Cc2cccc(C(=O)OCC3CCOCC3)c2)n1 (stereo not shown) [Example 214, oxan-4-ylmethyl 3-[2-[6-[[2-aminopropanoyl]-amino]pyridin-2-yl]ethynyl]benzoate]
18 | 416 | CNC(C)C(=O)Nc1ccc(-c2cnccc2C#N)c(C#Cc2ccc(C)cc2)n1 (stereo not shown) [Example 148, N-[5-(4-cyanopyridin-3-yl)-6-[2-(4-methylphenyl)ethynyl]pyridin-2-yl]-2-(methylamino)propan-amide]
19 | 265 | CNC(C)C(=O)Nc1ccc(-c2cncnc2)c(C#Cc2ccc3ccccc3c2)n1 (stereo not shown) [Example 23, 2-(methylamino)-N-[6-(2-naphthalen-2-ylethynyl)-5-pyrimidin-5-ylpyridin-2-yl]-propanamide]
20 | 644 | CNC(C)C(=O)Nc1ccc(-c2c(C)noc2C)c(C#Cc2ccc3cnccc3c2)n1 (stereo not shown) [Example 97, N-[5-(3,5-dimethyl-1,2-oxazol-4-yl)-6-(2-isoquinolin-6-ylethynyl)pyridin-2-yl]-2-(methylamino)propanamide]
21 | 130 | CNC(C)C(=O)Nc1ccc(-c2c(C)nc3ccccn23)c(C#Cc2ccc(F)c3ncccc23)n1 (stereo not shown) [Example 84, N-[6-[2-(8-fluoroquinolin-5-yl)-ethynyl]-5-(2-methyl-imidazo[1,2-a]pyridin-3-yl)-pyridin-2-yl]-2-(methylamino)-propanamide]
22 | 581 | CNC(C)C(=O)Nc1ccc(-c2ccc(C)c(C(=O)OC)c2)c(C#Cc2ccccc2)n1 (stereo not shown) [Example 134, methyl 2-methyl-5-[6-[[2-(methylamino)propanoyl]amino]-2-(2-phenylethynyl)pyridin-3-yl]-benzoate]
23 | 101 | CNC(C)C(=O)Nc1ccc(-c2cncc(N)c2)c(C#Cc2ccccc2)n1 (stereo not shown) [Example 128, N-[5-(5-aminopyridin-3-yl)-6-(2-phenylethynyl)pyridin-2-yl]-2-(methylamino)propanamide]
24 | 4230 | CC(N)C(=O)Nc1cccc(C#Cc2ccc3ccccc3c2)n1 (stereo not shown) [Example 242, 2-amino-N-[6-(2-naphthalen-2-ylethynyl)pyridin-2-yl]propanamide]
25 | 1370 | CCNC(CC)C(=O)Nc1ccc(-c2cncnc2)c(C#Cc2ccc3ncccc3c2)n1 (stereo not shown) [Example 170, 2-(ethylamino)-N-[5-pyrimidin-5-yl-6-(2-quinolin-6-ylethynyl)pyridin-2-yl]-butanamide]
26 | 1010 | CNC(C)C(=O)Nc1ccc(-c2cncnc2)c(C#Cc2ccc3ccccc3n2)n1 (stereo not shown) [Example 9, 2-(methylamino)-N-[5-pyrimidin-5-yl-6-(2-quinolin-2-ylethynyl)pyridin-2-yl]-propanamide]
27 | 502 | CCCNC(C)C(=O)Nc1ccc(-c2c(C)noc2C)c(C#Cc2ccccc2)n1 (stereo not shown) [Example 172, N-[5-(3,5-dimethyl-1,2-oxazol-4-yl)-6-(2-phenylethynyl)-pyridin-2-yl]-2-(propylamino)-propanamide]
28 | 417 | CNC(C)C(=O)Nc1ccc(-c2cncnc2)c(C#Cc2ccc3c(c2)OCCO3)n1 (stereo not shown) [Example 14, N-[6-[2-(2,3-dihydro-1,4-benzodioxin-6-yl)ethynyl]-5-pyrimidin-5-ylpyridin-2-yl]-2-(methylamino)propanamide]
